According to PubChem BioAssay (NCI):
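Grown in 96-well plates, cells were treated for 48 hours with each compound at five concentrations. Insufficient inhibition: endpoint recorded as highest concentration tested. Abbreviation: GI50, concentration required for 50% inhibition of growth. TGI: total growth inhibition.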

Tests used:
Test in all cases: NCI tumour cell line growth inhibition, 48 h
HOP-92 NSCLC = test system: HOP-92 NSCLC
OVCAR-8 ovarian = test system: OVCAR-8 ovarian
IGROV1 ovarian = test system: IGROV1 ovarian
SK-OV-3 ovarian = test system: SK-OV-3 ovarian
COLO 205 colon = test system: COLO 205 colon
PC-3 prostate = test system: PC-3 prostate
RPMI-8226 leukemia = test system: RPMI-8226 leukemia
K-562 leukemia = test system: K-562 leukemia
OVCAR-4 ovarian = test system: OVCAR-4 ovarian
BT-549 breast = test system: BT-549 breast
SF-539 CNS = test system: SF-539 CNS
MOLT-4 leukemia = test system: MOLT-4 leukemia
NCI-H522 lung = test system: NCI-H522 lung
ACHN renal = test system: ACHN renal
HS 578T breast = test system: HS 578T breast
NCI-H460 lung = test system: NCI-H460 lung
TK-10 renal = test system: TK-10 renal
UACC-257 melanoma = test system: UACC-257 melanoma
OVCAR-3 ovarian = test system: OVCAR-3 ovarian
SN12C renal = test system: SN12C renal
MALME-3M melanoma = test system: MALME-3M melanoma
SW-620 colon = test system: SW-620 colon
A549 NSCLC = test system: A549 NSCLC
SNB-75 CNS = test system: SNB-75 CNS
SK-MEL-28 melanoma = test system: SK-MEL-28 melanoma
HOP-62 NSCLC = test system: HOP-62 NSCLC
UO-31 renal = test system: UO-31 renal
OVCAR-5 ovarian = test system: OVCAR-5 ovarian
SK-MEL-2 melanoma = test system: SK-MEL-2 melanoma
MCF7 breast = test system: MCF7 breast
UACC-62 melanoma = test system: UACC-62 melanoma
T-47D breast = test system: T-47D breast
HCC-2998 colon = test system: HCC-2998 colon
U251 CNS = test system: U251 CNS
SR leukemia = test system: SR leukemia
HCT-15 colon = test system: HCT-15 colon
RXF 393 renal = test system: RXF 393 renal
MDA-MB-435 = test system: MDA-MB-435
SF-295 CNS = test system: SF-295 CNS
NCI/ADR-RES ovarian = test system: NCI/ADR-RES ovarian
SK-MEL-5 melanoma = test system: SK-MEL-5 melanoma
EKVX NSCLC = test system: EKVX NSCLC
A498 renal = test system: A498 renal
KM12 colon = test system: KM12 colon
NCI-H226 lung = test system: NCI-H226 lung
M14 melanoma = test system: M14 melanoma
HL-60(TB) leukemia = test system: HL-60(TB) leukemia
CAKI-1 renal = test system: CAKI-1 renal
CCRF-CEM leukemia = test system: CCRF-CEM leukemia
SNB-19 CNS = test system: SNB-19 CNS
SF-268 CNS = test system: SF-268 CNS
LOX IMVI melanoma = test system: LOX IMVI melanoma
HCT-116 colon = test system: HCT-116 colon
NCI-H23 lung = test system: NCI-H23 lung
786-0 renal = test system: 786-0 renal
HT29 colon = test system: HT29 colon
MDA-MB-231 breast = test system: MDA-MB-231 breast

COc1cc(/C=C2\C(=O)N(c3ccccc3)c3ccccc32)cc(OC)c1OC
GI50 (HOP-92 NSCLC): 3.71 µM | TGI (HOP-92 NSCLC): 20.7 µM | GI50 (OVCAR-8 ovarian): 8.83 µM | TGI (OVCAR-8 ovarian): 45.5 µM | GI50 (IGROV1 ovarian): 6.61 µM | TGI (IGROV1 ovarian): 32 µM | GI50 (SK-OV-3 ovarian): 18.4 µM | TGI (SK-OV-3 ovarian): 43.8 µM | GI50 (COLO 205 colon): 14.4 µM | TGI (COLO 205 colon): 71.3 µM | GI50 (PC-3 prostate): 3.13 µM | TGI (PC-3 prostate): 16.1 µM | GI50 (RPMI-8226 leukemia): 2.17 µM | TGI (RPMI-8226 leukemia): 5.78 µM | GI50 (K-562 leukemia): 3.04 µM | TGI (K-562 leukemia): > 100 µM | GI50 (OVCAR-4 ovarian): 10.4 µM | TGI (OVCAR-4 ovarian): 23.7 µM | GI50 (BT-549 breast): 15.5 µM | TGI (BT-549 breast): 47.4 µM | GI50 (SF-539 CNS): 5.38 µM | TGI (SF-539 CNS): 91.7 µM | GI50 (MOLT-4 leukemia): 2.33 µM | TGI (MOLT-4 leukemia): 10.8 µM | GI50 (NCI-H522 lung): 6.31 µM | TGI (NCI-H522 lung): 23.3 µM | GI50 (ACHN renal): 6.32 µM | TGI (ACHN renal): 20.7 µM | GI50 (HS 578T breast): 28.2 µM | TGI (HS 578T breast): > 100 µM | GI50 (NCI-H460 lung): 3.82 µM | TGI (NCI-H460 lung): > 100 µM | GI50 (TK-10 renal): 16.3 µM | TGI (TK-10 renal): 37.3 µM | GI50 (UACC-257 melanoma): 6.66 µM | TGI (UACC-257 melanoma): 19.9 µM | GI50 (OVCAR-3 ovarian): 5.93 µM | TGI (OVCAR-3 ovarian): 26.1 µM | GI50 (SN12C renal): 5.4 µM | TGI (SN12C renal): 24.7 µM | GI50 (MALME-3M melanoma): 18.5 µM | TGI (MALME-3M melanoma): 46.4 µM | GI50 (SW-620 colon): 5.96 µM | TGI (SW-620 colon): > 100 µM | GI50 (A549 NSCLC): 11.3 µM | TGI (A549 NSCLC): 40.9 µM | GI50 (SNB-75 CNS): 4.82 µM | TGI (SNB-75 CNS): 18.8 µM | GI50 (SK-MEL-28 melanoma): 4.91 µM | TGI (SK-MEL-28 melanoma): 18.4 µM | GI50 (HOP-62 NSCLC): 15 µM | TGI (HOP-62 NSCLC): 31.5 µM | GI50 (UO-31 renal): 13.7 µM | TGI (UO-31 renal): 31.3 µM | GI50 (OVCAR-5 ovarian): 14.1 µM | TGI (OVCAR-5 ovarian): 29 µM | GI50 (SK-MEL-2 melanoma): 11.7 µM | TGI (SK-MEL-2 melanoma): 30.7 µM | GI50 (MCF7 breast): 8.05 µM | TGI (MCF7 breast): > 100 µM | GI50 (UACC-62 melanoma): 7.12 µM | TGI (UACC-62 melanoma): 21.6 µM | GI50 (T-47D breast): 5.02 µM | TGI (T-47D breast): > 100 µM | GI50 (HCC-2998 colon): 10.6 µM | TGI (HCC-2998 colon): 23.9 µM | GI50 (U251 CNS): 3.87 µM | TGI (U251 CNS): 15.3 µM | GI50 (SR leukemia): 2.1 µM | TGI (SR leukemia): 10.4 µM | GI50 (HCT-15 colon): 4.37 µM | TGI (HCT-15 colon): 17.1 µM | GI50 (RXF 393 renal): 0.107 µM | TGI (RXF 393 renal): 2.87 µM | GI50 (MDA-MB-435): 5.85 µM | TGI (MDA-MB-435): 36.6 µM | GI50 (SF-295 CNS): 17.8 µM | TGI (SF-295 CNS): 81.3 µM | GI50 (NCI/ADR-RES ovarian): 6.37 µM | TGI (NCI/ADR-RES ovarian): 27.1 µM | GI50 (SK-MEL-5 melanoma): 7.29 µM | TGI (SK-MEL-5 melanoma): 26.7 µM | GI50 (EKVX NSCLC): 23.5 µM | TGI (EKVX NSCLC): 65.6 µM | GI50 (A498 renal): 18.1 µM | TGI (A498 renal): 38.9 µM | GI50 (KM12 colon): 3.84 µM | TGI (KM12 colon): 20.1 µM | GI50 (NCI-H226 lung): 9.69 µM | TGI (NCI-H226 lung): 29.3 µM | GI50 (M14 melanoma): 11.3 µM | TGI (M14 melanoma): 26.9 µM | GI50 (HL-60(TB) leukemia): 2.68 µM | TGI (HL-60(TB) leukemia): 15 µM | GI50 (CAKI-1 renal): 12.5 µM | TGI (CAKI-1 renal): 61.3 µM | GI50 (CCRF-CEM leukemia): 1.75 µM | TGI (CCRF-CEM leukemia): 7.78 µM | GI50 (SNB-19 CNS): 6.1 µM | TGI (SNB-19 CNS): 25.5 µM | GI50 (SF-268 CNS): 4.32 µM | TGI (SF-268 CNS): 15.3 µM | GI50 (LOX IMVI melanoma): 2.24 µM | TGI (LOX IMVI melanoma): 4.61 µM | GI50 (HCT-116 colon): 3.47 µM | TGI (HCT-116 colon): 12.4 µM | GI50 (NCI-H23 lung): 9.79 µM | TGI (NCI-H23 lung): 30.1 µM | GI50 (786-0 renal): 6.67 µM | TGI (786-0 renal): 21.2 µM | GI50 (HT29 colon): 3.7 µM | TGI (HT29 colon): 13.9 µM | GI50 (MDA-MB-231 breast): 4.12 µM | TGI (MDA-MB-231 breast): 26.1 µM
